Experimental data as given in patent publication US9724396B2, “Use of antagonists of growth hormone or growth hormone receptor to prevent or treat stress-sensitive psychiatric illness” (Massachusetts Institute of Technology, priority 2013, dated 2017).

Legend:
GH = settings: Varga et al, Proc. Natl. Acad. Sci. USA 1999; cited from earlier work
ghrelin receptor = molecular target: T1, ghrelin receptor (Rattus norvegicus, UniProt O08725); assay: GH release from short-term BLA cell cultures after ghrelin receptor stimulation; assay type: cell-based; settings: versus vehicle
T1 construct: short-term cultures were generated of BLA cells and measured GH protein in the media following treatment with either MK-0677 or vehicle; endogenous in cells; host or cells: short-term cultures of basolateral amygdala (BLA) cells
Procedure: (§1) Animals were killed 24 h after the last stress or handling session and the basolateral complex of the amygdala (BLA) was dissected. Growth hormone (GH) levels in the BLA were measured using enzyme-linked immunosorbent assay (ELISA). b) The herpes simplex virus (HSV)-based viral vectors expressing either green fluorescent protein (GFP; CON) or recombinant rat GH (rGH) was infused in the BLA and expression was assessed after behavioral testing was complete. Representative GFP expression from two rats is shown. c) Auditory Pavlovian fear conditioning was performed 3 days after HSV virus infusions. d) Long-term fear memory was assessed by placing the animals in a novel context and measuring conditional freezing following tone presentation 48 h after the conditioning session. e) Short-term BLA cell cultures were used to measure GH release following treatment with a ghrelin receptor agonist (MK) or vehicle (VEH). f) Adeno-associated virus (AAV) constructs were generated to examine the contribution of GH-mediated signaling in the BLA to ghrelin-induced potentiation of fear. g) Following infusion of the AAVs into the BLA and recovery, rats received 10 days of systemic injection of either a ghrelin receptor agonist (MK) or vehicle (VEH). […]

endogenous GH = assay: Auditory fear conditioning after intra-BLA AAV (GHA or GFP) and 10 days of systemic MK-0677 or saline; assay type: in vivo, rat; settings: 10 days MK-0677 or saline, tested 48 h after conditioning
Procedure: as §1

T1 sequence (O08725 whole entry): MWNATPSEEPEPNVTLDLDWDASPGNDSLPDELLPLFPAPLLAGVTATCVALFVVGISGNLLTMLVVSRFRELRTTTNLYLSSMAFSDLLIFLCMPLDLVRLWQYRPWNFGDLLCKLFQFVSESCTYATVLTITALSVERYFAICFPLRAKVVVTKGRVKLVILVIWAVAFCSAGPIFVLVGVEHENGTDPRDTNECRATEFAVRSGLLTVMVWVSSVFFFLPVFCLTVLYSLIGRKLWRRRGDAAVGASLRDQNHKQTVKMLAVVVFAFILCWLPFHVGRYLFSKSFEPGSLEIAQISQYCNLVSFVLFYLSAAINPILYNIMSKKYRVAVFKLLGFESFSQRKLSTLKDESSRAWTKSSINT

[PhAc-Tyr1,D-Arg2,Phe(4-Cl)6, Har9,Tyr(Me)10,Abu15,Nle27,D-Arg28,Har29]hGH-RH(1-29)NH2 [JV-1-38]
antagonistic activity (GH): high and or protracted antagonistic activity

[PhAc-Tyr1,DArg2, Phe(4-Cl)6,Arg9,Abu15,Nle27,D-Arg29]hGH-RH(1-29)NH2 [JV-1-10]
antagonistic activity (GH): high and or protracted antagonistic activity

[PhAc-Tyr1,D-Arg2,Phe(4-Cl)6,Abu15,Nle27, D-Arg28,Har29]hGH-RH(1-29)NH2 [MZ-6-55]
antagonistic activity (GH): high and or protracted antagonistic activity

[PhAc-Tyr1,DArg2, Phe(4-Cl)6,Arg9,Abu15,Nle27,D-Arg28,Har29]hGH-RH(1-29)NH2 [JV-1-36]
antagonistic activity (GH): high and or protracted antagonistic activity

CC(C)(N)C(=O)N[C@H](COCc1ccccc1)C(=O)N1CCC2(CC1)CN(S(C)(=O)=O)c1ccccc12 [MK-0677]
release of GH into the media (ghrelin receptor): significantly elevated release of GH | long-term auditory fear memory (endogenous GH): fear-enhancing effects
